# Data reported in US20230338609A1, “MEDICAL DEVICES AND MATERIALS COMPRISING BIODEGRADABLE POLYESTERS” (AMICOAT AS, priority 2020, published 2023).
# Columns and labels:
# C. albicans = details: Table 5
# [1] = test system: Haemophilus influenzae - β -lactamase positive clinical isolate
# [2] = test system: Stenotrophomonas maltophilia - antibiotic-susceptible clinical isolate; format: cell-based
# From the text: (§1) Cation-adjusted Mueller-Hinton broth (Oxoid Ltd., Basingstoke, UK and Trek Diagnostic Systems Ltd., East Grinstead, UK) (supplemented with 5% laked horse blood for Streptococcus spp., Corynebacterium jeikeium and Listeria monocytogenes) was used for aerobic bacteria, with an initial inoculum of approximately 10^5 colony-forming units (CFU)/mL.
# [3] = test system: Staphylococcus aureus - methicillin-resistant clinical isolate; format: cell-based
# From the text: as §1
# [4] = test system: Morganella morganii - multi-drug resistant clinical isolate; format: cell-based
# From the text: as §1
# [5] = test system: Enterococcus faecalis - ATCC 29212 antibiotic-susceptible control strain; format: cell-based
# From the text: as §1
# [6] = test system: Pseudomonas aeruginosa - multi-drug resistant clinical isolate; format: cell-based
# From the text: as §1
# [7] = test system: Enterococcus gallinarum vancomycin-resistant (VanC) clinical isolate; format: cell-based
# From the text: as §1
# [8] = test system: Corynebacterium jeikeium - multi-drug resistant clinical isolate; format: cell-based
# From the text: as §1
# [9] = test system: HT2001254 Staphylococcus aureus (MRSA) - PVL positive; format: cell-based
# From the text: as §1
# [10] = test system: Escherichia coli - multi-drug resistant clinical isolate; format: cell-based
# From the text: as §1
# [11] = test system: Klebsiella aerogenes NCTC11228 - antibiotic-susceptible type strain; format: cell-based
# From the text: as §1
# [12] = test system: Pseudomonas aeruginosa ATCC27853 - antibiotic-susceptible type strain; format: cell-based
# From the text: as §1
# [13] = test system: Enterococcus faecalis high-level gentamicin-resistant clinical isolate; format: cell-based
# From the text: as §1
# [14] = test system: Staphylococcus aureus ATCC 43300 - methicillin-resistant control strain; format: cell-based
# From the text: as §1
# [15] = test system: Streptococcus bovis - macrolide-resistant clinical isolate; format: cell-based
# From the text: as §1
# [16] = test system: Enterococcus faecalis vancomycin-resistant (VanB) clinical isolate; format: cell-based
# From the text: as §1
# [17] = test system: MU50 Staphylococcus aureus (MRSA) - VISA type strain; format: cell-based
# From the text: as §1
# [18] = test system: Enterococcus faecium vancomycin-susceptible clinical isolate; format: cell-based
# From the text: as §1
# [19] = test system: Group G Streptococcus - macrolide-resistant clinical isolate; format: cell-based
# From the text: as §1
# [20] = test system: Klebsiella aerogenes - multi-drug resistant clinical isolate; format: cell-based
# From the text: as §1
# [21] = test system: Escherichia coli ATCC32518 - β-lactamase positive type strain; format: cell-based
# From the text: as §1
# [22] = test system: Enterococcus faecalis vancomycin-susceptible clinical isolate; format: cell-based
# From the text: as §1
# [23] = test system: EMRSA3 Staphylococcus aureus (MRSA) - SSCmec type 1; format: cell-based; details: EMRSA3 - SSCmec type 1
# From the text: as §1
# [24] = test system: Streptococcus pyogenes - Macrolide (M-type) resistance clinical isolate; format: cell-based; details: - Macrolide (M-type) resistance clinical isolate
# From the text: as §1
# [25] = test system: Enterococcus faecium vancomycin-resistant (VanB) clinical isolate; format: cell-based
# From the text: as §1
# [26] = test system: Corynebacterium jeikeium - antibiotic-susceptible clinical isolate; format: cell-based
# From the text: as §1
# [27] = test system: Streptococcus agalactiae - macrolide-resistant clinical isolate; format: cell-based
# From the text: as §1
# [28] = test system: EMRSA1 Staphylococcus aureus (MRSA) - SSCmec type 3; format: cell-based; details: EMRSA1 - SSCmec type 3
# From the text: as §1
# P. aeruginosa = details: Table 5
# E. coli = details: Table 5
# [29] = test system: Staphylococcus aureus FDA486; assay: Murine skin infection model, topical treatment; format: in vivo; details: mice; 2% cream; three treatments at three hourly intervals; biopsy three hours after last
# Method: (§2) The skin of mice was infected with Staphylococcus aureus or Streptococcus pyogenes and subsequently given a total of three treatments at three hourly intervals. Three hours after the last treatment, skin biopsies were collected and the number of colony forming units (CFUs) present in the skin sample was determined. Results are shown in FIGS. 1 and 2, expressed as the number of colony forming units per mouse.
# as §2, with “3, 4” for “1”, “5” for “2,”
# [30] = test system: Methicillin resistant Staphylococcus aureus (MRSA) strain ATCC 33591; details: ATCC 33591
# [31] = test system: Methicillin resistant Staphylococcus epidermidis (MRSE) strain ATCC 27626; details: ATCC 27626
# [32] = test system: Propionibacterium acnes- antibiotic-resistant clinical isolate; details: P. acnes antibiotic-resistant
smiles,measurement,setting,value
CCCCCCNC(=O)[C@H](CCCNC(=N)N)NC(=O)[C@H](Cc1c(C(C)(C)C)[nH]c2c(C(C)(C)C)cc(C(C)(C)C)cc12)NC(=O)[C@@H](N)CCCNC(=N)N [Compound 8],C. albicans (MIC),C. albicans,5 µg/mL
same,MIC,[1],4 µg/mL
same,MIC,[2],4 µg/mL
same,MIC,[3],4 µg/mL
same,MIC,[4],8 µg/mL
same,MIC,[5],4 µg/mL
same,MIC,[6],4 µg/mL
same,MIC,[7],4 µg/mL
same,MIC,[8],2 µg/mL
same,MIC,[9],4 µg/mL
same,MIC,[10],8 µg/mL
same,MIC,[11],8 µg/mL
same,MIC,[12],8 µg/mL
same,MIC,[13],8 µg/mL
same,MIC,[14],4 µg/mL
same,MIC,[15],2 µg/mL
same,MIC,[16],8 µg/mL
same,MIC,[17],4 µg/mL
same,MIC,[18],4 µg/mL
same,MIC,[19],8 µg/mL
same,MIC,[20],8 µg/mL
same,MIC,[21],8 µg/mL
same,MIC,[22],4 µg/mL
same,MIC,[23],4 µg/mL
same,MIC,[24],8 µg/mL
same,MIC,[25],4 µg/mL
same,MIC,[26],4 µg/mL
same,MIC,[27],8 µg/mL
same,MIC,[28],4 µg/mL
same,P. aeruginosa (MIC),P. aeruginosa,5 µg/mL
same,E. coli (MIC),E. coli,5 µg/mL
same,number of CFUs in skin biopsy vs controls,[29],more effective at reducing the number of CFUs than the placebo and fucidin or bactroban
same,MRSA (MIC),[30],2 µg/mL
same,MRSE (MIC),[31],<1 µg/mL
same,MIC,[32],2 µg/mL
